Assay results from PubChem BioAssay (NCI).
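Growth conditions: 96-well plates. Treatment: test compound, 48 hours, 5 concentrations. Analysis: linear interpolation between bracketing concentrations; unreached endpoints set to highest concentration. GI50 is the concentration that inhibits growth by half. Definition used: TGI = concentration required for complete inhibition of growth.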

Experiments:
Assay in all cases: growth of human tumour cells (NCI), 48 h
UO-31 renal = system: UO-31 renal
UACC-257 melanoma = system: UACC-257 melanoma
NCI-H23 lung = system: NCI-H23 lung
EKVX NSCLC = system: EKVX NSCLC
NCI-H226 lung = system: NCI-H226 lung
ACHN renal = system: ACHN renal
OVCAR-4 ovarian = system: OVCAR-4 ovarian
T-47D breast = system: T-47D breast
SF-295 CNS = system: SF-295 CNS
786-0 renal = system: 786-0 renal
HOP-62 NSCLC = system: HOP-62 NSCLC
MOLT-4 leukemia = system: MOLT-4 leukemia
LOX IMVI melanoma = system: LOX IMVI melanoma
SK-MEL-5 melanoma = system: SK-MEL-5 melanoma
NCI/ADR-RES ovarian = system: NCI/ADR-RES ovarian
HL-60(TB) leukemia = system: HL-60(TB) leukemia
KM12 colon = system: KM12 colon
MCF7 breast = system: MCF7 breast
PC-3 prostate = system: PC-3 prostate
MALME-3M melanoma = system: MALME-3M melanoma
MDA-MB-231 breast = system: MDA-MB-231 breast
K-562 leukemia = system: K-562 leukemia
HOP-92 NSCLC = system: HOP-92 NSCLC
SK-MEL-2 melanoma = system: SK-MEL-2 melanoma
SR leukemia = system: SR leukemia
HS 578T breast = system: HS 578T breast
HCT-116 colon = system: HCT-116 colon
UACC-62 melanoma = system: UACC-62 melanoma
U251 CNS = system: U251 CNS
NCI-H460 lung = system: NCI-H460 lung
SNB-75 CNS = system: SNB-75 CNS
RXF 393 renal = system: RXF 393 renal
OVCAR-5 ovarian = system: OVCAR-5 ovarian
SK-MEL-28 melanoma = system: SK-MEL-28 melanoma
HCT-15 colon = system: HCT-15 colon
A549 NSCLC = system: A549 NSCLC
MDA-MB-468 breast = system: MDA-MB-468 breast
NCI-H522 lung = system: NCI-H522 lung
HCC-2998 colon = system: HCC-2998 colon
OVCAR-8 ovarian = system: OVCAR-8 ovarian
SW-620 colon = system: SW-620 colon
IGROV1 ovarian = system: IGROV1 ovarian
DU-145 prostate = system: DU-145 prostate
TK-10 renal = system: TK-10 renal
A498 renal = system: A498 renal
SF-539 CNS = system: SF-539 CNS
CCRF-CEM leukemia = system: CCRF-CEM leukemia
RPMI-8226 leukemia = system: RPMI-8226 leukemia
SNB-19 CNS = system: SNB-19 CNS
SN12C renal = system: SN12C renal
CAKI-1 renal = system: CAKI-1 renal
OVCAR-3 ovarian = system: OVCAR-3 ovarian
MDA-MB-435 = system: MDA-MB-435
COLO 205 colon = system: COLO 205 colon
SK-OV-3 ovarian = system: SK-OV-3 ovarian
BT-549 breast = system: BT-549 breast
HT29 colon = system: HT29 colon
SF-268 CNS = system: SF-268 CNS
M14 melanoma = system: M14 melanoma

Compound: COc1ccc(Cc2nn(CC(=O)N/N=C/c3ccc(Br)cc3)c(=O)c3c(C)noc23)cc1
- GI50 (UO-31 renal): 2.98 µM
- TGI (UO-31 renal): 15.3 µM
- GI50 (UACC-257 melanoma): > 100 µM
- TGI (UACC-257 melanoma): > 100 µM
- GI50 (NCI-H23 lung): 7.06 µM
- TGI (NCI-H23 lung): 22.8 µM
- GI50 (EKVX NSCLC): 14.5 µM
- TGI (EKVX NSCLC): 83.1 µM
- GI50 (NCI-H226 lung): 2.52 µM
- TGI (NCI-H226 lung): 13.4 µM
- GI50 (ACHN renal): 2.65 µM
- TGI (ACHN renal): 11.2 µM
- GI50 (OVCAR-4 ovarian): 0.511 µM
- TGI (OVCAR-4 ovarian): 2.12 µM
- GI50 (T-47D breast): 0.97 µM
- TGI (T-47D breast): 9.48 µM
- GI50 (SF-295 CNS): 10.3 µM
- TGI (SF-295 CNS): 23.4 µM
- GI50 (786-0 renal): 1.48 µM
- TGI (786-0 renal): 6.94 µM
- GI50 (HOP-62 NSCLC): 10.6 µM
- TGI (HOP-62 NSCLC): 26.4 µM
- GI50 (MOLT-4 leukemia): 7.82 µM
- TGI (MOLT-4 leukemia): > 100 µM
- GI50 (LOX IMVI melanoma): 3.54 µM
- TGI (LOX IMVI melanoma): 52.8 µM
- GI50 (SK-MEL-5 melanoma): > 100 µM
- TGI (SK-MEL-5 melanoma): > 100 µM
- GI50 (NCI/ADR-RES ovarian): 4.6 µM
- TGI (NCI/ADR-RES ovarian): > 100 µM
- GI50 (HL-60(TB) leukemia): > 100 µM
- TGI (HL-60(TB) leukemia): > 100 µM
- GI50 (KM12 colon): > 100 µM
- TGI (KM12 colon): > 100 µM
- GI50 (MCF7 breast): 3.44 µM
- TGI (MCF7 breast): > 100 µM
- GI50 (PC-3 prostate): 10.4 µM
- TGI (PC-3 prostate): > 100 µM
- GI50 (MALME-3M melanoma): 5.48 µM
- TGI (MALME-3M melanoma): 29.1 µM
- GI50 (MDA-MB-231 breast): 5.73 µM
- TGI (MDA-MB-231 breast): 25.8 µM
- GI50 (K-562 leukemia): 14.8 µM
- TGI (K-562 leukemia): > 100 µM
- GI50 (HOP-92 NSCLC): 4.98 µM
- TGI (HOP-92 NSCLC): 21.2 µM
- GI50 (SK-MEL-2 melanoma): 16.4 µM
- TGI (SK-MEL-2 melanoma): 32.1 µM
- GI50 (SR leukemia): 14.6 µM
- TGI (SR leukemia): > 100 µM
- GI50 (HS 578T breast): 3.61 µM
- TGI (HS 578T breast): 61.2 µM
- GI50 (HCT-116 colon): 0.81 µM
- TGI (HCT-116 colon): 10.3 µM
- GI50 (UACC-62 melanoma): 14.1 µM
- TGI (UACC-62 melanoma): > 100 µM
- GI50 (U251 CNS): 2.03 µM
- TGI (U251 CNS): 13.4 µM
- GI50 (NCI-H460 lung): 1.56 µM
- TGI (NCI-H460 lung): 16.4 µM
- GI50 (SNB-75 CNS): 0.287 µM
- TGI (SNB-75 CNS): 1.41 µM
- GI50 (RXF 393 renal): 2.75 µM
- TGI (RXF 393 renal): 11.4 µM
- GI50 (OVCAR-5 ovarian): 16.8 µM
- TGI (OVCAR-5 ovarian): > 100 µM
- GI50 (SK-MEL-28 melanoma): 36.9 µM
- TGI (SK-MEL-28 melanoma): > 100 µM
- GI50 (HCT-15 colon): 12.3 µM
- TGI (HCT-15 colon): > 100 µM
- GI50 (A549 NSCLC): 1.49 µM
- TGI (A549 NSCLC): > 100 µM
- GI50 (MDA-MB-468 breast): 7.58 µM
- TGI (MDA-MB-468 breast): 27.4 µM
- GI50 (NCI-H522 lung): 8.77 µM
- TGI (NCI-H522 lung): 41.6 µM
- GI50 (HCC-2998 colon): 34.5 µM
- TGI (HCC-2998 colon): > 100 µM
- GI50 (OVCAR-8 ovarian): 17.4 µM
- TGI (OVCAR-8 ovarian): > 100 µM
- GI50 (SW-620 colon): 3.07 µM
- TGI (SW-620 colon): > 100 µM
- GI50 (IGROV1 ovarian): 12.4 µM
- TGI (IGROV1 ovarian): 32.3 µM
- GI50 (DU-145 prostate): 16.1 µM
- TGI (DU-145 prostate): > 100 µM
- GI50 (TK-10 renal): 10.1 µM
- TGI (TK-10 renal): 23.9 µM
- GI50 (A498 renal): 3.01 µM
- TGI (A498 renal): 8.8 µM
- GI50 (SF-539 CNS): 11.9 µM
- TGI (SF-539 CNS): 25.4 µM
- GI50 (CCRF-CEM leukemia): 7.87 µM
- TGI (CCRF-CEM leukemia): > 100 µM
- GI50 (RPMI-8226 leukemia): 69.9 µM
- TGI (RPMI-8226 leukemia): > 100 µM
- GI50 (SNB-19 CNS): 14.6 µM
- TGI (SNB-19 CNS): 33.1 µM
- GI50 (SN12C renal): 1.63 µM
- TGI (SN12C renal): 11.5 µM
- GI50 (CAKI-1 renal): 5.21 µM
- TGI (CAKI-1 renal): 19.1 µM
- GI50 (OVCAR-3 ovarian): 2.27 µM
- TGI (OVCAR-3 ovarian): 10.9 µM
- GI50 (MDA-MB-435): 30.5 µM
- TGI (MDA-MB-435): > 100 µM
- GI50 (COLO 205 colon): > 100 µM
- TGI (COLO 205 colon): > 100 µM
- GI50 (SK-OV-3 ovarian): 5.55 µM
- TGI (SK-OV-3 ovarian): 20.1 µM
- GI50 (BT-549 breast): 18.2 µM
- TGI (BT-549 breast): 58 µM
- GI50 (HT29 colon): 5.05 µM
- TGI (HT29 colon): > 100 µM
- GI50 (SF-268 CNS): 14.8 µM
- TGI (SF-268 CNS): 52.6 µM
- GI50 (M14 melanoma): 18.5 µM
- TGI (M14 melanoma): > 100 µM
